Laboratory results published in patent publication US20200223889A1, “Bicyclic Compounds Capable of Binding to Melanocortin 4 Receptor” (Novo Nordisk A/S, priority 2017, published 2020).
pEC50, pKi: −log10 of the molar value. Like-named read-outs stand apart in the source and are kept apart here. Positions of bridges follow the written chain, without caps; N, C: chain ends. Non-standard residues stand in square brackets, D forms with d. Residues, ends and D or L forms follow the SMILES beside them. Hyp = O=C(O)[C@@H]1C[C@@H](O)CN1; Orn = NCCC[C@H](N)C(=O)O; Thz = O=C(O)[C@@H]1CSCN1

Legend:
human MC4R [1] = target: T1, human MC4R (Homo sapiens, UniProt P32245); test: 125NDP-α-MSH competitive binding to membranes of BHK cells expressing human MC4 receptor (filtration assay)
T1 construct: expressed in transfected cells
Outline: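 Displacement of ^125NDP-α-MSH (apx. […] final) was measured by filtration after 2 h at 25 °C, using diluted membranes of stably transfected BHK cells in pH 7.0 HEPES buffer. Compounds spanned 1 μM to 0.001 nM; binding curves were analysed by non-linear regression.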

human MC4R [2] = target: T1, human MC4R; test: Functional cAMP assay (CisBio HTRF) in BHK cells expressing human MC4R; assay type: cell-based; settings: for MC1R/MC4R cAMP EC50 ratio: MC1R cAMP EC50 divided by MC4R cAMP EC50
Outline: (§1)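 Compound working solutions, 10-fold dilutions from 2 μM at twice final strength, in buffer containing 1 mM IBMX, were incubated 30 min at 25 °C with BHK cells stably carrying human MC4R or MC1R. Accumulated cAMP was then detected by competitive HTRF after 1 h at 25 °C and fitted by non-linear regression.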

[3] = In vivo acute food intake model (BioDAQ) in C57BL/6J male mice; settings: single subcutaneous dose 1 mg/kg, cumulative food intake
Method: The MC4R system is central to appetite regulation and agonists are known inhibit food intake. In order to screen compounds in a relevant in vivo model, efficacy was assessed by determining the effect of the compound on reducing food intake acutely in mice.
All animal protocols were approved by an Institutional Animal Care and Use Committee and Ethical Review Committee of Novo Nordisk. Animals were housed according to Novo Nordisk rodent housing standards, and were given ad libitum access to food and water under controlled lighting (12 h:12 h light/dark cycle; lights off 11:00-23:00), temperature (23±2° C.) and relative humidity (50±20%) conditions. For each acute food intake study C57BL/6J male mice (25-30 grams body weight) were acclimated for two weeks to the appropriate light cycle and to single-housing (one mouse per cage) in cages linked to a BioDAQ automated food intake system (Research Diets Inc., New Brunswick, N.J. USA). The animals were also acclimated to new food (Research Diets 12450B, 10% kcal fat) during this time.
The BioDAQ is a computer automated scientific instrument for Biological Data Acquisition of food intake in rodents and measures food intake from each cage every 15 minutes. A total of 32 animals can be accommodated in the system per study, therefore, animals were randomized into 4 groups of n=8 for each study. […] Animals were fasted ˜4 hr prior to dosing. Vehicle (10 mM phosphate; 140 mM sodium chloride) or compound was dosed at a volume of 10 ml per kg subcutaneously approximately 20 minutes prior to the start of the dark cycle (compound chem no. and dosages are indicated in table 2 below). After dosing, food intake was recorded for approximately 24 hours.
The inhibitory effect of compounds on food intake was generally well-correlated with in vitro binding affinity on the human MC4 receptor and with plasma stability of the compound. Most studies were conducted as dose response studies with vehicle and the compound at 3 doses (0.3, 1 and 3 mg/kg). Some studies were done for the purpose of dose-range finding, while others were done to comparatively assess the effect of 3 compounds at the same dose. Maximal effects on food intake occurred within the first 1-5 hours post-dose. The comparative effect of compounds across studies on food intake was assessed by normalizing measurements as % effect on cumulative food intake after a single subcutaneous dose, relative to vehicle. Results are reported in Table 2 as % effect on food intake at 3 hours post dose.

human MC1R = target: T2, human MC1R (Homo sapiens, UniProt Q01726); test: Functional cAMP assay (CisBio HTRF) in BHK cells expressing human MC1R; assay type: cell-based
T2 construct: expressed in transfected cells
Outline: as §1

[4] = human MC4R, BHK cell membranes, 125NDP-α-MSH radioligand, read-out: MC4R binding Ki
[5] = BHK cells expressing human MC4R, '>' = highest dose used with no response, read-out: MC4R cAMP EC50

T1 sequence (P32245 whole entry): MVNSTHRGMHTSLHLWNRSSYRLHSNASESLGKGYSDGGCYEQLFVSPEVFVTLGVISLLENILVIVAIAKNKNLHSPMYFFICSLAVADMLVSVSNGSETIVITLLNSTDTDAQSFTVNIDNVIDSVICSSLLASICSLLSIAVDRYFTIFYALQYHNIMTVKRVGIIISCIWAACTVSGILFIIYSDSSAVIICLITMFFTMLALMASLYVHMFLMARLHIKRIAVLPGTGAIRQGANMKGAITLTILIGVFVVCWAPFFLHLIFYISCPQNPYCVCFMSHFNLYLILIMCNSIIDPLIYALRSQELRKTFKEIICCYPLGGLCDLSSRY
T2 sequence (Q01726 whole entry): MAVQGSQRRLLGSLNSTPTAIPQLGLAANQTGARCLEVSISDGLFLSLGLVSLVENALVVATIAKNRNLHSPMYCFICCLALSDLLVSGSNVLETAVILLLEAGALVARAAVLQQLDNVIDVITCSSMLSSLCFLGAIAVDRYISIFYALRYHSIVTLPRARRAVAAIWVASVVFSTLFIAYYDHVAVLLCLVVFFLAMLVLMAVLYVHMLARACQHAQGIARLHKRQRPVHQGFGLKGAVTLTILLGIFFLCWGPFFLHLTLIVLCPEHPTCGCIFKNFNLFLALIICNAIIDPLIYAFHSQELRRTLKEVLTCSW

Row | Structure (SMILES) | pKi (human MC4R [1]; [4]) | pEC50 (human MC4R [2]; [5]) | MC1R/MC4R cAMP EC50 ratio (human MC4R [2]) | % Effect on food intake at 3 hours post dose, relative to vehicle [3] | pKi (human MC4R [1]) | pEC50 (human MC4R [2]) | pEC50 (human MC1R)
1 | C[C@@H]1NC(=O)[C@@H]2CSSC[C@H](NC(=O)[C@H](CCCNC(=N)N)NC(=O)[C@H](CCCCN)NC(=O)[C@H](CCCCN)NC(=O)[C@H](Cc3c[nH]cn3)NC1=O)C(=O)N1CCC[C@H]1C(=O)N[C@@H](Cc1c[nH]cn1)C(=O)N[C@H](Cc1ccccc1)C(=O)N[C@@H](Cc1c[nH]cn1)C(=O)N[C@@H](Cc1c[nH]c3ccccc13)C(=O)N2 [Chem. 96, c[c[Cys-Pro-His-D-Phe-His-Trp-Cys]- Ala-His-Lys-Lys-Arg]] (cyclo(AHKKRCPH[dF]HWC); disulfide 6-12) | 10.40 | 10.40 | 1442 | −17 ± 14% |  |  | 
2 | C[C@@H]1NC(=O)[C@@H]2CSSC[C@H](NC(=O)[C@H](Cc3c[nH]c4ccccc34)NC(=O)[C@H](CCCCN)NC(=O)[C@H](CCCCN)NC(=O)[C@H](CCCCN)NC1=O)C(=O)N1CSC[C@H]1C(=O)N[C@@H](Cc1c[nH]cn1)C(=O)N[C@H](Cc1ccccc1)C(=O)N[C@@H](Cc1c[nH]cn1)C(=O)N[C@@H](Cc1c[nH]c3ccccc13)C(=O)N2 [Chem. 81, c[c[Cys-THAZ-His-D-Phe-His-Trp- Cys]-Ala-Lys-Lys-Lys-Trp]] (cyclo(AKKKWC[Thz]H[dF]HWC); disulfide 6-12) |  |  | 957 | −72 ± 7% | 10.52 | 10.15 | 
3 | C[C@@H]1NC(=O)[C@@H]2CSSC[C@H](NC(=O)[C@H](CCCNC(=N)N)NC(=O)[C@H](CCCN)NC(=O)[C@H](CCC(=O)O)NC(=O)[C@H](Cc3c[nH]cn3)NC1=O)C(=O)N1CSC[C@H]1C(=O)N[C@@H](Cc1c[nH]cn1)C(=O)N[C@H](Cc1ccccc1)C(=O)N[C@@H](Cc1c[nH]cn1)C(=O)N[C@@H](Cc1c[nH]c3ccccc13)C(=O)N2 [Chem. 120, c[c[Cys-THAZ-His-D-Phe-His-Trp- Cys]-Ala-His-Glu-Orn-Arg]] (cyclo(AHE[Orn]RC[Thz]H[dF]HWC); disulfide 6-12) |  |  | 3673 | −28 ± 12% |  | 10.10 | 
4 | C[C@@H]1NC(=O)[C@@H]2CSSC[C@H](NC(=O)[C@H](Cc3c[nH]c4ccccc34)NC(=O)[C@H](CCCNC(=N)N)NC(=O)[C@@H](Cc3ccccc3)NC(=O)[C@H](Cc3c[nH]cn3)NC1=O)C(=O)N[C@@H](C)C(=O)N[C@@H](Cc1c[nH]cn1)C(=O)N[C@H](Cc1ccccc1)C(=O)N[C@@H](CCCNC(=N)N)C(=O)N[C@@H](Cc1c[nH]c3ccccc13)C(=O)N2 [Chem. 111, c[c[Cys-Ala-His-D-Phe-Arg-Trp-Cys]- Ala-His-D-Phe-Arg-Trp]] |  |  | 31 | −63 ± 4% | 10.40 | 11.00 | 9.51
5 | C[C@@H]1NC(=O)[C@H](CCCCN)NC(=O)[C@H](CCCCN)NC(=O)[C@H](C)NC(=O)[C@@H]2CSSC[C@H](NC(=O)[C@H](Cc3c[nH]c4ccccc34)NC1=O)C(=O)N1CSC[C@H]1C(=O)N[C@@H](Cc1c[nH]cn1)C(=O)N[C@H](Cc1ccccc1)C(=O)N[C@@H](Cc1c[nH]cn1)C(=O)N[C@@H](Cc1c[nH]c3ccccc13)C(=O)N2 [Chem. 110, c[c[Cys-THAZ-His-D-Phe-His-Trp- Cys]-Ala-Lys-Lys-Ala-Trp]] (cyclo(AKKAWC[Thz]H[dF]HWC); disulfide 6-12) |  |  | 1266 | −26 ± 15% | 10.05 | 10.30 | 
6 | NCCCC[C@@H]1NC(=O)[C@@H]2CSSC[C@H](NC(=O)[C@H](Cc3c[nH]c4ccccc34)NC(=O)[C@H](Cc3c[nH]cn3)NC(=O)[C@@H](Cc3ccccc3)NC(=O)[C@H](Cc3c[nH]cn3)NC1=O)C(=O)N[C@@H](CCCCN)C(=O)N[C@@H](Cc1c[nH]cn1)C(=O)N[C@H](Cc1ccccc1)C(=O)N[C@@H](Cc1c[nH]cn1)C(=O)N[C@@H](Cc1c[nH]c3ccccc13)C(=O)N2 [Chem. 52, c[c[Cys-Lys-His-D-Phe-His-Trp-Cys]- Lys-His-D-Phe-His-Trp]] (cyclo(CKH[dF]HWCKH[dF]HW); disulfide 1-7) |  |  | 207 | −66 ± 9% |  |  | 
7 | C[C@@H]1NC(=O)[C@@H]2CSSC[C@H](NC(=O)[C@H](Cc3c[nH]c4ccccc34)NC(=O)[C@H](CCCCN)NC(=O)[C@H](CCCCN)NC(=O)[C@H](CCCCN)NC1=O)C(=O)N1C[C@H](O)C[C@H]1C(=O)N[C@@H](Cc1c[nH]cn1)C(=O)N[C@H](Cc1ccccc1)C(=O)N[C@@H](Cc1c[nH]cn1)C(=O)N[C@@H](Cc1c[nH]c3ccccc13)C(=O)N2 [Chem. 70, c[c[Cys-Hyp-His-D-Phe-His-Trp-Cys]- Ala-Lys-Lys-Lys-Trp]] (cyclo(AKKKWC[Hyp]H[dF]HWC); disulfide 6-12) | 10.15 | 9.42 | 199 | −39 ± 10% |  |  | 
